Measured values taken from PMC8199471, “Identification, Characterization and Antihypertensive Effect In Vivo of a Novel ACE-Inhibitory Heptapeptide from Defatted Areca Nut Kernel Globulin Hydrolysates” (Molecules, 2021).
pIC50: −log10 of the molar value. Ends that are not written are not given here.

Key:
[1] = test system: spontaneously hypertensive rats (SHRs); experiment: Antihypertensive effect in vivo, tail-cuff SBP and DBP; design: species or system rat; conditions: positive control, oral 14 mg/kg/body weight once daily, throughout the experiment period
Method: The antihypertensive effect of the synthesized peptide was determined as per the same procedure described by Zheng et al.. Briefly, spontaneously hypertensive rats (SHRs, male, 12 weeks age) were purchased from VRL Animal Technology Co., Ltd. (Beijing, China). The SHRs were randomly divided into positive control group, low-, middle- and high-dosage groups, and negative control group. Each group contains four rats. […] In addition, SHRs in the negative group were orally given saline (0.9%). After an adaptation period of one week, the weight, systolic blood pressure (SBP) and diastolic blood pressure (DBP) of SHRs were measured using the tail-cuff method once week. Moreover, the animal experiment was conducted in conformity with institutional guidelines for the care and use of laboratory animals in Shanxi University of Chinese Medicine, Taiyuan, China. All the rats received human care conforming to the National Institutes of Health Guide for care and Use of Laboratory Animals (Publication No. 85-23, revised 1985).

ACE (from rabbit lung) = biological target: T1, ACE (from rabbit lung) (Oryctolagus cuniculus, UniProt P12822); experiment: ACE-inhibitory activity assay (HHL substrate, method of Jimsheena and Gowda); format: biochemical; conditions: synthesized peptide; calculated from regression y = 12.464 ln(x) − 28.656
T1 construct: ACE (from rabbit lung); purchased Sigma Co., St. Louis, MO, USA; host or cells: rabbit lung (tissue-derived)
T1 sequence (P12822 34-1310): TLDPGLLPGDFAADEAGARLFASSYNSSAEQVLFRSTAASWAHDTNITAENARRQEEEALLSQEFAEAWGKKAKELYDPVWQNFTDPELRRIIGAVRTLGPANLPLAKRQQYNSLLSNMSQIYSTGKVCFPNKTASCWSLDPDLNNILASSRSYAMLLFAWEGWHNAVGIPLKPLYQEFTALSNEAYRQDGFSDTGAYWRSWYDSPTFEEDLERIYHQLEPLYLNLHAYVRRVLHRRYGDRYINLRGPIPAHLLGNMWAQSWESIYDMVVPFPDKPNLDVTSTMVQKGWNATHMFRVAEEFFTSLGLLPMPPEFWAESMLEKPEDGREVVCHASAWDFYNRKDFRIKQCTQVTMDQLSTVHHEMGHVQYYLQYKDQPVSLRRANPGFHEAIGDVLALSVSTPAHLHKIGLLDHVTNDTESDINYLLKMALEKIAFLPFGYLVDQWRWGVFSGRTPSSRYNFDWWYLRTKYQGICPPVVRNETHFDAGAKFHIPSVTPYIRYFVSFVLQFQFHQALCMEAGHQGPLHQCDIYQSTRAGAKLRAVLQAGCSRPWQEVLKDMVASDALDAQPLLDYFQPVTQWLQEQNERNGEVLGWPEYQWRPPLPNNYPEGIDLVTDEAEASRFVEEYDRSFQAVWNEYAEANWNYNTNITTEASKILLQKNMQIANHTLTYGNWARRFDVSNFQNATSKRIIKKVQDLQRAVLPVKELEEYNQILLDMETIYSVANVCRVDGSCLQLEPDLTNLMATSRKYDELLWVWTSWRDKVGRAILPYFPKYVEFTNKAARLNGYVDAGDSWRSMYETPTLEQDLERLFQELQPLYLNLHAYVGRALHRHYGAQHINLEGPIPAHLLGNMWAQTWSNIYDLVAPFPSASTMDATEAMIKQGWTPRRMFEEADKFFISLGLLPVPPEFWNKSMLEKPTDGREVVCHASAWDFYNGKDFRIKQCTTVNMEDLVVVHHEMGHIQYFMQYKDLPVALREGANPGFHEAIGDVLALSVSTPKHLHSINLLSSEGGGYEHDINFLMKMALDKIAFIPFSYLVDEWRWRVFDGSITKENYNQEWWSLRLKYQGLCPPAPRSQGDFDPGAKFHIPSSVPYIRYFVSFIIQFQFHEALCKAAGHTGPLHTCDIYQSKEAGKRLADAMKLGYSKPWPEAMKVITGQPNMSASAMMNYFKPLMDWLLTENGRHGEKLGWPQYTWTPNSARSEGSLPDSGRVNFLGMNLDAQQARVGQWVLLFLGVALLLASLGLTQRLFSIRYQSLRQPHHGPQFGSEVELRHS
Source text: Areca nut kernel was purchased from Sanpo Palm Ground Part Co., Haikou, China. Cellulase (from Trichoderma viride G, 3.0 × 10^5 U), trypsin (5 × 10^[…]) and alcalase (1 × 10^[…]) were purchased from Tian Keji Co., Ltd. (Tianjin, China). EA.hy926 cells were purchased from the Type Culture Collection of the Chinese Academy of Sciences, Shanghai, China. Captopril, ACE (from rabbit lung) and N-Hippuryl-His-Leu hydrate (HHL) were purchased from Sigma Co., St. Louis, MO, USA. Endothelin-1 Elisa kit was from Pensui Biotech Co. (Wuhan, China). DMEM (Dulbecco's modified Eagle's medium) were obtained from JiQing Biotech. Co., Ltd. (Nanjing, China). Other chemicals and reagents were of analytical grade and purchased from Peisu Co., Ltd. (Xi'an, China). ACE-inhibitory activity was determined using the same procedure as described by Jimsheena and Gowda. The concentration of the sample required for inhibiting 50% of ACE activity was defined as IC50 value. The ACE inhibition kinetics of peptides identified in ANKGH was analyzed by Lineweaver-Burk plots of 1/V versus 1/HHL in the presence of the inhibitor [17]. The concentrations of HHL (N-hippuryl-His-Leu hydrate) used were 0.76 to 7.60 mM.

ACE = test system: ACE; design: method as in 2 sources, one per row (each row's own in cited_ref): ref 18 = [18]; PMID 29606478; doi:10.1016/j.foodchem.2018.02.107; 18. Tu M. Wang C. Chen C. Zhang R. Liu H. Lu W. Jiang L. Du M. Identification of a novel ACE-inhibitory peptide from casein and evaluation of the inhibitory mechanisms Food Chem. 2018 256 98 104 10.10 ||| ref 20 = [20]; PMID 30229250; doi:10.1039/C8FO00569A; 20. Ling Y. Sun L.P. Zhuang Y.L. Preparation and identification of novel inhibitory angiotensin-I-converting enzyme peptides from tilapia skin gelatin hydrolysates: Inhibition kinetics and molecular d; conditions: peptide identified in casein protein; cited from earlier work

For `C[C@H](CS)C(=O)N1CCC[C@H]1C(=O)O` [Captopril], the “DBP of SHRs among all test groups” value [1] was “lowest” and the “SBP of SHRs among all test groups” value [1] was “lowest”.

In the case of “APKIEEV [APKIEEV, Ala–Pro–Lys–Ile–Glu–Glu–Val]”, the pIC50 (ACE (from rabbit lung)) was 3.26.

In the case of NMAINPSKENLCSTFCK, the pIC50 (ACE) is given as 3.89.
